Measurements published in the OligoGym collection.
Values joined by “and” are separate entries in the source; they are usually repeats but may differ in a detail not shown here. Identical values can stand only once. After the bases stand the sugars from the 5' end (letter, count) and the backbone: PS all phosphorothioate, else s phosphorothioate and o phosphodiester by linkage. Methylation of C is not given here. e = 2'-O-(2-methoxyethyl) (MOE); k = constrained ethyl (cEt); d = 2'-deoxy (DNA); m = 2'-O-methyl

Biological target: HSD17B13
Conditions: ASO, HepaRG

Row | Sequence | target mRNA inhibition (1 µM) | also measured
1 | CGTTTGACTGCTGCTA (sugars k3 d9 k3 e1, PS) | 75% and 50% | target mRNA inhibition (0.02 µM): 4%; target mRNA inhibition (0.078 µM): 17%; target mRNA inhibition (0.313 µM): 34%; target mRNA inhibition (1.25 µM): 57%; target mRNA inhibition (5 µM): 66%
2 | CGTTTTGGGCTAATGA (sugars k3 d10 k3, PS) | 48% | 
3 | CTAAAATTGTCTAAAC (sugars kkdddddddddkekek, PS) | 19% | 
4 | CTAAACATCTCTGGGA (sugars k3 d9 k3 e1, PS) | 57% | 
5 | CTAACCAATTATATGA (sugars k3 d10 k3, PS) | 21% | 
6 | CTAAGTAGTAATTCTA (sugars k3 d10 k3, PS) | 35% | 
7 | CTAATAACTACATGAC (sugars k3 d10 k3, PS) | 18% | 
8 | CTACAAGAGGTTATTT (sugars k3 d10 k3, PS) | 31% | 
9 | CTACAGAGGAGTTTGC (sugars k3 d10 k3, PS) | 27% | 
10 | CTACCACATACGCATG (sugars k3 d10 k3, PS) | 25% | 
11 | CTACCTCCAAATTCCC (sugars k3 d10 k3, PS) | 27% | 
12 | CTACTTGAACAGTCTT (sugars k3 d9 k3 e1, PS) | 71% | 
13 | CTACTTGAACAGTCTT (sugars k3 d10 k3, PS) | 80% | target mRNA inhibition (0.02 µM): 8%; target mRNA inhibition (0.078 µM): 23%; target mRNA inhibition (0.313 µM): 49%; target mRNA inhibition (1.25 µM): 79%; target mRNA inhibition (5 µM): 97%
14 | CTACTTGAACAGTCTT (sugars kkdddddddddkekek, PS) | 47% | 
15 | CTACTTTCAAACCTTG (sugars k3 d10 k3, PS) | 57% | 
16 | CTAGATACTCAATTTA (sugars k3 d10 k3, PS) | 30% | 
17 | CTAGGAAGTGATCCAT (sugars k3 d10 k3, PS) | 66% | 
18 | CTAGGGAAATCTTTCA (sugars k3 d1 m1 d8 k3, PS) | 19% | 
19 | CTAGTAATTGCATCTG (sugars k3 d10 k3, PS) | 57% | 
20 | CTAGTGCCAAACCAAT (sugars kkdddddddddkekek, PS) | 47% | 

Row | Sequence | target mRNA inhibition (1 µM) | also measured
21 | CTAGUGCCAAACCAAT (sugars k3 d1 m1 d8 k3, PS) | 45% | 
22 | CTATAATACATTAGCA (sugars k3 d10 k3, PS) | 3% | 
23 | CTATAGTAATCACAAG (sugars k3 d10 k3, PS) | 35% | 
24 | CTATCAACCTGCACAC (sugars k3 d10 k3, PS) | 39% | 
25 | CTATCAGAACAGTTCA (sugars k3 d10 k3, PS) | 48% | 
26 | CTATCTCCCTATTTGT (sugars k3 d10 k3, PS) | 15% | 
27 | CTATGTAATAGGCAGT (sugars k3 d10 k3, PS) | 73% | target mRNA inhibition (0.02 µM): 18%; target mRNA inhibition (0.078 µM): 20%; target mRNA inhibition (0.313 µM): 63%; target mRNA inhibition (1.25 µM): 75%; target mRNA inhibition (5 µM): 86%
28 | CTATTATGCACTCTAT (sugars k3 d10 k3, PS) | 32% | 
29 | CTATTGATTGGCTTAA (sugars k3 d10 k3, PS) | 31% | 
30 | CTATTGTATGAGGTCT (sugars k3 d10 k3, PS) | 42% | 
31 | CTCAAATGAGGCGGCA (sugars k3 d10 k3, PS) | 56% | 
32 | CTCAAATGTCTTGGTA (sugars k3 d10 k3, PS) | 29% | 
33 | CTCAGGCTGTAAGAGT (sugars k3 d1 m1 d8 k3, PS) | 46% | 
34 | CTCAGGCTGTAAGAGT (sugars k3 d9 k3 e1, PS) | 21% | 
35 | CTCCATCATCGATGGA (sugars k3 d10 k3, PS) | 0% | 
36 | CTCCGTGTAGTTTGGT (sugars k3 d10 k3, PS) | 28% | 
37 | CTCTAAATACCCTTGG (sugars k3 d10 k3, PS) | 7% | 
38 | CTCTAATGTTTCTTGA (sugars k3 d10 k3, PS) | 53% | 
39 | CTCTATAAAATCAATC (sugars k3 d10 k3, PS) | 0% | 
